Source: PubChem BioAssay (NCI)
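Interpolation was linear, between the two tested concentrations surrounding the appropriate level; five concentrations were tested over 48 hours in 96-well plates. TGI: total growth inhibition.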

Experiments:
Assay in all cases: growth of human tumour cells (NCI), 48 h
HS 578T breast = system: HS 578T breast
SK-MEL-5 melanoma = system: SK-MEL-5 melanoma
EKVX NSCLC = system: EKVX NSCLC
COLO 205 colon = system: COLO 205 colon
T-47D breast = system: T-47D breast
OVCAR-8 ovarian = system: OVCAR-8 ovarian
BT-549 breast = system: BT-549 breast
HCT-116 colon = system: HCT-116 colon
MDA-N = system: MDA-N
MDA-MB-231 breast = system: MDA-MB-231 breast
CCRF-CEM leukemia = system: CCRF-CEM leukemia
UACC-62 melanoma = system: UACC-62 melanoma
PC-3 prostate = system: PC-3 prostate
HCC-2998 colon = system: HCC-2998 colon
OVCAR-3 ovarian = system: OVCAR-3 ovarian
SF-295 CNS = system: SF-295 CNS
RXF 393 renal = system: RXF 393 renal
SK-MEL-28 melanoma = system: SK-MEL-28 melanoma
HL-60(TB) leukemia = system: HL-60(TB) leukemia
SK-OV-3 ovarian = system: SK-OV-3 ovarian
MALME-3M melanoma = system: MALME-3M melanoma
KM12 colon = system: KM12 colon
SF-539 CNS = system: SF-539 CNS
LOX IMVI melanoma = system: LOX IMVI melanoma
HOP-92 NSCLC = system: HOP-92 NSCLC
SK-MEL-2 melanoma = system: SK-MEL-2 melanoma
A549 NSCLC = system: A549 NSCLC
TK-10 renal = system: TK-10 renal
SN12C renal = system: SN12C renal
A498 renal = system: A498 renal
OVCAR-5 ovarian = system: OVCAR-5 ovarian
NCI-H226 lung = system: NCI-H226 lung
NCI-H460 lung = system: NCI-H460 lung
IGROV1 ovarian = system: IGROV1 ovarian
K-562 leukemia = system: K-562 leukemia
RPMI-8226 leukemia = system: RPMI-8226 leukemia
NCI/ADR-RES ovarian = system: NCI/ADR-RES ovarian
OVCAR-4 ovarian = system: OVCAR-4 ovarian
DU-145 prostate = system: DU-145 prostate
UO-31 renal = system: UO-31 renal
SW-620 colon = system: SW-620 colon
NCI-H522 lung = system: NCI-H522 lung
M14 melanoma = system: M14 melanoma
MOLT-4 leukemia = system: MOLT-4 leukemia
HOP-62 NSCLC = system: HOP-62 NSCLC
SNB-19 CNS = system: SNB-19 CNS
CAKI-1 renal = system: CAKI-1 renal
MCF7 breast = system: MCF7 breast
U251 CNS = system: U251 CNS
SR leukemia = system: SR leukemia
HT29 colon = system: HT29 colon
HCT-15 colon = system: HCT-15 colon
SNB-75 CNS = system: SNB-75 CNS
MDA-MB-435 = system: MDA-MB-435
NCI-H23 lung = system: NCI-H23 lung
ACHN renal = system: ACHN renal
UACC-257 melanoma = system: UACC-257 melanoma
786-0 renal = system: 786-0 renal
SF-268 CNS = system: SF-268 CNS

Q: `CCCCCNC1=CC(=O)c2ccccc2C1=O` was tested. Which TGI (HS 578T breast) did it give?
A: > 81.3 µM

Q: What about the TGI (SK-MEL-5 melanoma) of the same compound?
A: 77.8 µM

Q: What about the TGI (EKVX NSCLC) of the same compound?
A: > 100 µM

Q: What about the TGI (COLO 205 colon) of the same compound?
A: > 100 µM

Q: What about the TGI (T-47D breast) of the same compound?
A: > 82.6 µM

Q: And the TGI (OVCAR-8 ovarian)?
A: 51.8 µM

Q: And the TGI (BT-549 breast)?
A: 46 µM

Q: What about the TGI (HCT-116 colon) of the same compound?
A: > 61.7 µM

Q: And the TGI (MDA-N)?
A: > 100 µM

Q: And the TGI (MDA-MB-231 breast)?
A: 44.3 µM

Q: And the TGI (CCRF-CEM leukemia)?
A: > 100 µM

Q: And the TGI (UACC-62 melanoma)?
A: > 100 µM

Q: What about the TGI (PC-3 prostate) of the same compound?
A: > 100 µM

Q: And the TGI (HCC-2998 colon)?
A: > 100 µM

Q: What about the TGI (OVCAR-3 ovarian) of the same compound?
A: 65 µM

Q: What about the TGI (SF-295 CNS) of the same compound?
A: > 70.3 µM

Q: And the TGI (RXF 393 renal)?
A: 47.3 µM

Q: And the TGI (SK-MEL-28 melanoma)?
A: > 100 µM

Q: And the TGI (HL-60(TB) leukemia)?
A: > 62.6 µM

Q: What about the TGI (SK-OV-3 ovarian) of the same compound?
A: > 84.7 µM

Q: What about the TGI (MALME-3M melanoma) of the same compound?
A: > 95.3 µM

Q: And the TGI (KM12 colon)?
A: > 100 µM

Q: What about the TGI (SF-539 CNS) of the same compound?
A: 41 µM

Q: What about the TGI (LOX IMVI melanoma) of the same compound?
A: > 57 µM

Q: What about the TGI (HOP-92 NSCLC) of the same compound?
A: 59.1 µM

Q: What about the TGI (SK-MEL-2 melanoma) of the same compound?
A: 53.6 µM

Q: And the TGI (A549 NSCLC)?
A: > 100 µM

Q: What about the TGI (TK-10 renal) of the same compound?
A: 52.3 µM

Q: And the TGI (SN12C renal)?
A: > 100 µM

Q: And the TGI (A498 renal)?
A: > 76.7 µM

Q: What about the TGI (OVCAR-5 ovarian) of the same compound?
A: > 100 µM

Q: And the TGI (NCI-H226 lung)?
A: > 82.5 µM

Q: What about the TGI (NCI-H460 lung) of the same compound?
A: > 100 µM

Q: And the TGI (IGROV1 ovarian)?
A: > 100 µM

Q: What about the TGI (K-562 leukemia) of the same compound?
A: > 100 µM

Q: And the TGI (RPMI-8226 leukemia)?
A: > 100 µM

Q: And the TGI (NCI/ADR-RES ovarian)?
A: > 100 µM

Q: And the TGI (OVCAR-4 ovarian)?
A: > 100 µM

Q: And the TGI (DU-145 prostate)?
A: > 100 µM

Q: And the TGI (UO-31 renal)?
A: > 88.6 µM

Q: And the TGI (SW-620 colon)?
A: > 100 µM

Q: What about the TGI (NCI-H522 lung) of the same compound?
A: 44.3 µM

Q: And the TGI (M14 melanoma)?
A: > 100 µM

Q: What about the TGI (MOLT-4 leukemia) of the same compound?
A: > 100 µM

Q: What about the TGI (HOP-62 NSCLC) of the same compound?
A: 43.5 µM

Q: And the TGI (SNB-19 CNS)?
A: 82.5 µM

Q: What about the TGI (CAKI-1 renal) of the same compound?
A: 80.6 µM

Q: And the TGI (MCF7 breast)?
A: > 100 µM

Q: And the TGI (U251 CNS)?
A: 34 µM

Q: And the TGI (SR leukemia)?
A: > 100 µM

Q: And the TGI (HT29 colon)?
A: > 100 µM

Q: What about the TGI (HCT-15 colon) of the same compound?
A: > 100 µM

Q: And the TGI (SNB-75 CNS)?
A: 49.4 µM

Q: What about the TGI (MDA-MB-435) of the same compound?
A: > 100 µM

Q: And the TGI (NCI-H23 lung)?
A: 58.3 µM

Q: And the TGI (ACHN renal)?
A: > 100 µM

Q: What about the TGI (UACC-257 melanoma) of the same compound?
A: > 100 µM

Q: And the TGI (786-0 renal)?
A: 38.9 µM

Q: And the TGI (SF-268 CNS)?
A: > 77.1 µM

Q: With `CC(=C(C(=O)O)C(=O)O)c1cc(-c2cccs2)cc(-c2ccc(Cl)cc2)c1O` as the compound, how does the TGI (HS 578T breast) read?
A: > 90.7 µM

Q: What about the TGI (SK-MEL-5 melanoma) of the same compound?
A: > 52.8 µM

Q: What about the TGI (EKVX NSCLC) of the same compound?
A: 32.2 µM

Q: What about the TGI (COLO 205 colon) of the same compound?
A: 44.8 µM

Q: What about the TGI (T-47D breast) of the same compound?
A: 21.3 µM

Q: What about the TGI (OVCAR-8 ovarian) of the same compound?
A: 52.8 µM

Q: What about the TGI (BT-549 breast) of the same compound?
A: 34.4 µM

Q: What about the TGI (HCT-116 colon) of the same compound?
A: 29.1 µM

Q: What about the TGI (MDA-N) of the same compound?
A: 31.4 µM

Q: What about the TGI (MDA-MB-231 breast) of the same compound?
A: 43.5 µM

Q: What about the TGI (CCRF-CEM leukemia) of the same compound?
A: > 76.5 µM

Q: And the TGI (UACC-62 melanoma)?
A: 35.7 µM

Q: And the TGI (PC-3 prostate)?
A: 28.3 µM

Q: What about the TGI (HCC-2998 colon) of the same compound?
A: 38 µM

Q: And the TGI (OVCAR-3 ovarian)?
A: 33.6 µM

Q: What about the TGI (SF-295 CNS) of the same compound?
A: 46.5 µM

Q: What about the TGI (RXF 393 renal) of the same compound?
A: 29.6 µM

Q: What about the TGI (SK-MEL-28 melanoma) of the same compound?
A: 36.3 µM

Q: And the TGI (HL-60(TB) leukemia)?
A: 46.6 µM

Q: What about the TGI (SK-OV-3 ovarian) of the same compound?
A: > 82.5 µM

Q: What about the TGI (MALME-3M melanoma) of the same compound?
A: 41 µM

Q: What about the TGI (KM12 colon) of the same compound?
A: 24.2 µM

Q: What about the TGI (SF-539 CNS) of the same compound?
A: 29.8 µM

Q: What about the TGI (LOX IMVI melanoma) of the same compound?
A: 29.6 µM

Q: What about the TGI (HOP-92 NSCLC) of the same compound?
A: 34.3 µM

Q: What about the TGI (SK-MEL-2 melanoma) of the same compound?
A: > 88.6 µM

Q: What about the TGI (A549 NSCLC) of the same compound?
A: > 80.8 µM

Q: And the TGI (TK-10 renal)?
A: 31.9 µM

Q: What about the TGI (SN12C renal) of the same compound?
A: 30.5 µM

Q: What about the TGI (A498 renal) of the same compound?
A: 30.8 µM

Q: And the TGI (OVCAR-5 ovarian)?
A: > 86.8 µM

Q: What about the TGI (NCI-H226 lung) of the same compound?
A: > 72.2 µM

Q: And the TGI (NCI-H460 lung)?
A: 37.3 µM

Q: And the TGI (IGROV1 ovarian)?
A: 29.3 µM

Q: And the TGI (K-562 leukemia)?
A: > 53.6 µM

Q: And the TGI (RPMI-8226 leukemia)?
A: 15.6 µM

Q: And the TGI (NCI/ADR-RES ovarian)?
A: 57.2 µM

Q: What about the TGI (OVCAR-4 ovarian) of the same compound?
A: > 71.9 µM

Q: And the TGI (DU-145 prostate)?
A: 30.6 µM

Q: What about the TGI (UO-31 renal) of the same compound?
A: 24.5 µM

Q: What about the TGI (SW-620 colon) of the same compound?
A: 43.6 µM

Q: And the TGI (NCI-H522 lung)?
A: 33.3 µM

Q: And the TGI (M14 melanoma)?
A: 32.7 µM

Q: And the TGI (MOLT-4 leukemia)?
A: 69.7 µM

Q: And the TGI (HOP-62 NSCLC)?
A: 60.4 µM

Q: What about the TGI (SNB-19 CNS) of the same compound?
A: 37.1 µM

Q: And the TGI (CAKI-1 renal)?
A: 40.6 µM

Q: What about the TGI (MCF7 breast) of the same compound?
A: 17.9 µM

Q: And the TGI (U251 CNS)?
A: 29.3 µM

Q: What about the TGI (SR leukemia) of the same compound?
A: 37.1 µM

Q: And the TGI (HT29 colon)?
A: 40.5 µM

Q: What about the TGI (HCT-15 colon) of the same compound?
A: 37.5 µM

Q: What about the TGI (SNB-75 CNS) of the same compound?
A: 37.6 µM

Q: What about the TGI (MDA-MB-435) of the same compound?
A: 35.1 µM

Q: And the TGI (NCI-H23 lung)?
A: 32.6 µM

Q: What about the TGI (ACHN renal) of the same compound?
A: 29.4 µM

Q: And the TGI (UACC-257 melanoma)?
A: 33.5 µM

Q: What about the TGI (786-0 renal) of the same compound?
A: 32.2 µM

Q: What about the TGI (SF-268 CNS) of the same compound?
A: 54.9 µM
